Results on 4 molecules are retold here after ChEMBL document CHEMBL3638409, “Cycloalkane carboxylic acid derivatives as CXCR3 receptor antagonists” (2015).

The structures appear in SMILES notation.

The target in this assay is T1, C-X-C chemokine receptor type 3 (Homo sapiens, UniProt P49682).
T1 sequence (P49682 whole entry): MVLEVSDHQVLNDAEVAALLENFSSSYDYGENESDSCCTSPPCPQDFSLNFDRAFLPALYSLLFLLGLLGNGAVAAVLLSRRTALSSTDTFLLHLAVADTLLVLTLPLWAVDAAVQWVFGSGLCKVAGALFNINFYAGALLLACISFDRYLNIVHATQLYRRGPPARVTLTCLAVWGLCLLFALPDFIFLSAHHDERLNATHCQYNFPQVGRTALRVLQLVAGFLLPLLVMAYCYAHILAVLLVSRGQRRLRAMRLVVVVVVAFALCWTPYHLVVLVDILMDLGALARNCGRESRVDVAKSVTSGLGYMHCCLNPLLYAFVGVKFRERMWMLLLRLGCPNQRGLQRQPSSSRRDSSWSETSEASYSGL
Briefly: Competition Radioligand Binding Assay: Competition radioligand binding assays were performed to determine the in vitro potency of the newly synthesized, unlabeled test compounds to displace the specific binding of the radiolabelled endogenous chemokine, 125I-CXCL10, from the human CXCR3-A receptor. IC50 values were determined for the test compounds and used to explore the structure-activity relationships (SAR).
As to `CN1CC(=O)N(CCOc2ccc(CN(C[C@H]3CC[C@H](C(=O)O)CC3)C3CCc4cc(Cl)ccc43)cc2Cl)C1=O` (some centres undefined), the IC50 – broadly, the concentration that inhibits the measured activity by half – is 1200 nM.
For `COc1cc(CN(C[C@H]2CC[C@H](C(=O)O)CC2)C(C)c2ccc3c(c2)CCO3)ccc1CCCN1C(=O)CCC1=O` (some centres undefined) the value was 81 nM.
As for `Cc1cc(CN(C[C@H]2CC[C@H](C(=O)O)CC2)C(C)c2ccc(Cl)c(Cl)c2)ccc1OCCN1C(=O)CN(C)C1=O` (some centres undefined), the figure is 431 nM.
For `COc1cc(CN(C2CC(C(=O)O)C2)C(C)c2ccc3c(c2)CCO3)ccc1OCCN1C(=O)CCC1=O` (centres undefined) the value was 58 nM.
